Experimental findings from patent US7759373B2, “Large conductance calcium-activated K channel opener” (Mitsubishi Tanabe Pharma Corporation, priority 2001, dated 2010) are described below.

Assay [1] has as its system isolated rabbit urinary bladder. In words: Relaxation effect on potassium-induced contraction of isolated rabbit urinary bladder. The conditions noted are these: Oryctolagus cuniculus; 50% relaxation concentration; high-K+ (30 mM) pre-contracted rabbit bladder strips; relaxation as percentage of the maximum produced by 0.1 mM papaverine; read-out: EC50 value range. Format: cell-based. The method, then:
Relaxation effect on potassium-induced contraction of isolated rabbit urinary bladder
Urinary bladder was isolated from Male NZW rabbits (2.0-3.5 kg) and immersed in ice-cold Krebs-bicarbonate solution (in mM: 118 NaCl, 4.7 KCl, 1.2, 2.5 CaCl2, MgSO4, 1.2 KH2PO4, 11 glucose, 25 NaHCO3). The urinary bladder was cut into longitudinal strips (5 mm length, 3-4 mm width) after mucosal layer was removed. Preparations were mounted in organ baths containing 10 ml of Krebs solution maintained at 37° C. and gassed with 95% O2/5% CO2. Accordingly, preparations were stretched with an initial tension of 2.0±1.0 g, and changes in isometric tension were measured by force-displacement transducer. The preparations were pre-contracted by changing organ-bath solution into high-K^+ (30 mM) Krebs solution (in mM: 92.7 NaCl, 30 KCl, 1.2, 2.5 CaCl2, MgSO4, 1.2 KH2PO4, 11 glucose, 25 NaHCO3).
After stable tension was obtained, compounds were added into organ baths cumulatively (10^−8M-10^−4M). The effects of compounds were expressed as a percentage of the maximum relaxation produced by 0.1 mM papaverine. 50% relaxation concentration (EC50) was calculated and EC50 value range (μM) of the compounds of the present invention was shown in the following Table 64 with a rank of A, B or C. These ranges are as mentioned below. 3≧C≧1≧B≧0.5≧A

The test system of assay [2] is rhythmic bladder contractions induced by substance P. Briefly: Inhibitory effect on the rhythmic bladder contractions induced by substance P in anesthetized rats. Format: in vivo, rat. The settings on record: time during which frequency of rhythmic contraction was completely inhibited, 0.25 mg/kg of the compound, substance P infusion. The method in brief: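 Value is duration (min) of complete inhibition of bladder contractions, ranked A/B/C at 20 and 10 min cut-offs. Intravenous dosing (0.5% Tween 80 saline) in female SD rats under urethane, bladder saline-filled and contractions maintained by substance P infusion, 0.33 μg/kg/min.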

pEC50: −log10 of the molar value.

With `O=C(O)Cc1oc(-c2ccc(F)cc2)nc1-c1ccc(Cl)cc1` [Preparation Example 511], in assay [1], the pEC50 was at least 6.30. In assay [2], the “100% inhibition time range” value is recorded as “C (A≧20>B≧10>C (minute))”. In the same order, the values of `FCCc1nc(-c2ccc(F)cc2)[nH]c1-c1ccccc1` [Preparation Example 182] are at least 6.30 and “B (A≧20>B≧10>C (minute))”. For the compound `O=C(O)Cc1nc(-c2cc3ccccc3o2)oc1-c1ccc(Cl)s1` [Preparation Example 435], the pEC50 in assay [1] is 6.00 to 6.30. In addition, the “100% inhibition time range” value in assay [2] is listed as “B (A≧20>B≧10>C (minute))”. Consider `O=C(O)Cc1nc(-c2ccc(Cl)cc2)oc1-c1ccc(Cl)s1` [Preparation Example 275], for which the pEC50 in assay [1] is at least 6.30. In assay [2], the “100% inhibition time range” value is “A (A≧20>B≧10>C (minute))”. The like results for `Cc1cccc(-c2nc(CC(=O)O)c(-c3cccs3)o2)c1` [Preparation Example 432] were, in that order, at least 6.30 and “C (A≧20>B≧10>C (minute))”. In the same order, the values of `CSc1ccc(-c2nc(CC(=O)O)c(-c3ccc(Cl)cc3)o2)cc1` [Preparation Example 455] are 5.52 to 6.00 and “B (A≧20>B≧10>C (minute))”.

With `O=C(O)Cc1nc(-c2ccc(F)cc2)oc1-c1ccc(F)cc1` [Preparation Example 235], the pEC50 in assay [1] was 6.00 to 6.30. In assay [2], the “100% inhibition time range” value is recorded as “B (A≧20>B≧10>C (minute))”. `O=C(O)Cc1nc(-c2ccc(F)cc2)oc1-c1ccc(Cl)cc1` [Preparation Example 243]: the pEC50 in assay [1] was at least 6.30. Further, the “100% inhibition time range” value in assay [2] was “A (A≧20>B≧10>C (minute))”. On to `O=C(O)Cc1nc(-c2ccc(F)cc2)oc1-c1ccc(Cl)c(Cl)c1` [Preparation Example 240], for which the pEC50 in assay [1] was 6.00 to 6.30. Moreover, the “100% inhibition time range” value in assay [2] is reported as “C (A≧20>B≧10>C (minute))”. The like results for `Cn1ccc2cc(-c3nc(CC(=O)O)c(-c4ccc(Cl)s4)o3)ccc21` [Preparation Example 469] were, in that order, 5.52 to 6.00 and “B (A≧20>B≧10>C (minute))”.

With `CCc1nc(-c2csc(Cl)c2)[nH]c1-c1cccnc1` [Preparation example 55], the pEC50 in assay [1] is 5.52 to 6.00. The “100% inhibition time range” value in assay [2] is “B (A≧20>B≧10>C (minute))”. In the same order, the values of `CN(C)c1[nH]c(-c2ccc(F)cc2)nc1-c1ccccc1.Cl` [Preparation example 108, 5-dimethylamino-2-(4-fluorophenyl)-4-phenylimidazole hydrochloride] are 5.52 to 6.00 and “B (A≧20>B≧10>C (minute))”.

Turning to `O=C(O)Cc1nc(-c2cc3ccccc3s2)oc1-c1ccsc1` [Preparation Example 437], the pEC50 in assay [1] is at least 6.30. Further, the “100% inhibition time range” value in assay [2] was “B (A≧20>B≧10>C (minute))”. The like results for `CCCc1nc(-c2ccc(F)cc2)[nH]c1-c1ccsc1` [Preparation Example 172] were, in that order, 5.52 to 6.00 and “C (A≧20>B≧10>C (minute))”. With `O=C(O)Cc1nc(-c2ccc(F)cc2)oc1-c1ccc(Cl)c(F)c1` [Preparation Example 253], the pEC50 in assay [1] was 6.00 to 6.30. Further, the “100% inhibition time range” value in assay [2] was “A (A≧20>B≧10>C (minute))”.

Take `O=C(O)Cc1nc(-c2ccc3c(c2)CCO3)oc1-c1ccc(Cl)s1` [Preparation Example 282]: the pEC50 in assay [1] is 6.00 to 6.30. Also, the “100% inhibition time range” value in assay [2] is reported as “B (A≧20>B≧10>C (minute))”.

`CN(C)c1ccc(-c2nc(-c3cccs3)c(CC(=O)O)s2)cn1` [Preparation Example 579]: the pEC50 in assay [1] was 6.00 to 6.30. In addition, the “100% inhibition time range” value in assay [2] is given as “C (A≧20>B≧10>C (minute))”. For `O=C(O)Cc1nc(-c2ccc3occc3c2)oc1-c1ccc(Cl)s1` [Preparation Example 272], the negative logarithm of the EC50 (pEC50) in assay [1] was at least 6.30. For the same compound, in assay [2], the “100% inhibition time range” value is listed as “B (A≧20>B≧10>C (minute))”.

Take `CONC(=O)Cc1nc(-c2ccc(F)cc2)oc1-c1ccsc1` [Preparation Example 373, N-methoxy-[2-(4-fluorophenyl)-5-(3-thienyl)oxazol-4-yl]acetamide]: the negative-log EC50 (pEC50) in assay [1] is 5.52 to 6.00. Also, in assay [2], the “100% inhibition time range” value is recorded as “C (A≧20>B≧10>C (minute))”. In the same order, the values of `C[S+]([O-])Cc1[nH]c(-c2ccc(F)cc2)nc1-c1ccccc1` (stereo not drawn) [Preparation example 639] are 5.52 to 6.00 and “C (A≧20>B≧10>C (minute))”. Take `CCc1nc(-c2ccc(C#N)cc2)[nH]c1-c1cccnc1` [Preparation example 53]: the negative-log EC50 (pEC50) in assay [1] is 6.00 to 6.30. In addition, the “100% inhibition time range” value in assay [2] was “C (A≧20>B≧10>C (minute))”. The like results for `CCc1nc(-c2ccc(C#N)s2)[nH]c1-c1cccnc1` [Preparation example 16] were, in that order, 5.52 to 6.00 and “B (A≧20>B≧10>C (minute))”.

`CCc1nc(-c2ccc(Cl)cc2)[nH]c1-c1cccnc1` [Preparation example 56]: the negative-log EC50 (pEC50) in assay [1] is 6.00 to 6.30. For the same compound, the “100% inhibition time range” value in assay [2] is “B (A≧20>B≧10>C (minute))”. In the same order, the values of `CCc1c(-c2cccnc2)nc(-c2ccc(F)cc2)n1CC` [Preparation example 104] are 6.00 to 6.30 and “A (A≧20>B≧10>C (minute))”.

Regarding `CSc1ncc(-c2nc(CC(=O)O)c(-c3ccc(Cl)c(F)c3)o2)cn1` [Preparation Example 462], the pEC50 in assay [1] was 6.00 to 6.30. Further, in assay [2], the “100% inhibition time range” value was “C (A≧20>B≧10>C (minute))”. As for `CSc1ccc(-c2nc(CC(=O)O)c(-c3ccc(Cl)s3)o2)cc1` [Preparation Example 281], the negative-log EC50 (pEC50) in assay [1] was at least 6.30. Moreover, the “100% inhibition time range” value in assay [2] was “C (A≧20>B≧10>C (minute))”. In the same order, the values of `CC(C)c1ccc(-c2nc(CC(=O)O)c(-c3ccc(Cl)s3)o2)cc1` [Preparation Example 273] are 5.52 to 6.00 and “C (A≧20>B≧10>C (minute))”.

In the case of `Cn1c(-c2oc(-c3ccc(F)cc3)nc2CC(=O)O)cc2ccccc21` [Preparation Example 249], in assay [1], the pEC50 is 5.52 to 6.00. Moreover, the “100% inhibition time range” value in assay [2] is given as “B (A≧20>B≧10>C (minute))”. In the case of `COCc1nc(-c2ccc(F)cc2)[nH]c1-c1ccccc1` [Preparation example 121], the pEC50 in assay [1] is 5.52 to 6.00. Take `CCCc1nc(-c2cccc3ccccc23)[nH]c1-c1ccccc1` [Preparation example 36]: the pEC50 in assay [1] was 5.52 to 6.00. The same measure, in the same setting: next, `CCc1nc(-c2ccc(F)cc2)[nH]c1-c1nccs1` [Preparation example 51]: at least 6.30. Same read-out and setting: as for `CN(C)c1ccc(-c2nc(-c3cccs3)c(CC(=O)O)o2)cn1` [Preparation Example 506], the figure is 6.00 to 6.30.

For `COc1ccc(-c2nc(-c3cccs3)c(CC(=O)O)o2)cc1` [Preparation Example 507], in assay [1], the pEC50 is at least 6.30.

Take `CCCc1nc(-c2ccccc2)[nH]c1-c1ccccc1` [Preparation Example 180]: the pEC50 in assay [1] is 5.52 to 6.00. The same measure, in the same setting: next, `CCCc1nc(-c2ccc[nH]2)[nH]c1-c1ccccc1` [Preparation example 35]: 5.52 to 6.00; `CCCc1nc(-c2cc3ccccc3o2)[nH]c1-c1ccccc1` [Preparation example 38]: 5.52 to 6.00; `O=C(O)Cc1nc(-c2ccc(Cl)cc2)oc1C1CCCC1` [Preparation Example 265]: 5.52 to 6.00. Same read-out and setting: next, `CCc1nc(-c2ccc(F)cc2)[nH]c1-c1cscn1` [Preparation example 52]: at least 6.30.
